“Also recorded” adds a separate entry of the source. Like-named read-outs stand apart in the source and are kept apart here.
Tests used:
[1] = tested on: colon adenocarcinoma (1,2 dimethylhydrazine induced tumors); experiment: Fluorescence imaging of normal versus neoplastic colon tissue after lavage; assay type: in vivo, Sprague Dawley rat; details: 0.1 mmol/kg, 20 minutes
Description: Tumors were induced in Sprague Dawley rats via injection of 1,2 dimethylhydrazine dihydrochloride and the subsequent feeding of a high fat, meat-based diet. […] One animal with an observable lesion was anesthetized, allowing it to respire during lavage introduction of the fluorescent marker. An aqueous solution of Tb-PTCMB at a concentration of 0.1 mmol/kg animal body weight, was administered to a Sprague Dawley rat using the 1.0 mm working lumen of the micro-endoscope. Introduction of the marker solution was made at the site of the suspect tissue mass with a volume necessary to fill the entire large intestine (method described in U.S. Pat. No. 5,456,245). […]
Upon dissection of the large intestine, a large occlusive mass approximately 4.5 cm by 5.0 cm was found approximately 15 cm from the rectum. […] Four slides from each tissue region were first left unstained for fluorescence microscopy imaging as described below and then stained with Hematoxylin and Eosin (H&E stain). Using standard histological criteria for diagnosis, tissue taken from the suspect site was determined to be adenocarcinoma. […] The tissue taken from a location removed from the abnormality was determined to be normal.
Using an in-house modified microscope, samples from the suspect and remote regions of the animal were imaged. Shown in FIGS. 10C and 11C are the fluorescence images of the identical regions of the same tissues. […]

[2] = tested on: rat bone and intestinal tissues; details: in vivo
[3] = tested on: rat bone and intestinal tissues; experiment: Tissue fluorescence microscopy/tissue selectivity of Tb chelates in rats
[4] = tested on: HT-29 cells; experiment: Cytotoxicity HT-29 cells (Trypan blue); assay type: cell-based; details: 2 mL of 2 mM Tb-PCTMB
Description: HT-29 cell lines were obtained from American Type Culture Collection (ATCC) and maintained in Dulbecco's Modified Eagle Medium (DMEM) with 10% fetal bovine serum. Tree days prior to confluence, the cells were inoculated with 2 mL of 2 mM Tb-PCTMB and allowed to grow to confluence. Two days prior to confluence, the unbound TB-PCTMB was removed with four washings of PBS and the cells were removed from the flask with 3 mL of trypsin. The cell suspension was transferred to a centrifuge tube with 12 mL of growth media and spun a 1000 g for 10 minutes to pellet the cells. The media and the trypsin were removed and the cell suspension was resuspended in 5 mL of media. For ease in counting, 100 μL of the cell suspension was mixed with 100 μL of media in a microfuge tube. Fifty μL of this dilution was mixed with 50 μL of Trypan blue stain and loaded into the hemocytometer. The cells in 5 squares on the hemocytometer were counted where stained cells were dead and unstained cells were alive. Multiplication of the average count per square by the dilution factor (4) gave the number of cells×10^4 per mL. The number of cells reported is the average of three individual counts.

[5] = tested on: IEC-6 cells; experiment: Cytotoxicity IEC-6 cells; assay type: cell-based
From the text: *Average of triplicate counting. Procedure detailed in Ref. 27

[6] = Fluorescence properties of the complexes; assay type: physicochemical; details: excited with a UV lamp
From the text: The use of terbium (Tb) or europium (Eu) as the central metal ion to render a tissue specific fluorescent probe is very appealing. Derivatives of this type would be valuable for visual assessment of tissue conditions such as early detection of cancer and would not depend upon protein conjugation to reach their target. Furthermore, concentration of the active fluorescent material could conceivably be much higher than in the case of immunoassays making detection much easier. The present complexes have an excitation band of 250 to 290 nm and a spike emission with peaks at bands of 490 to 510 nm, 540 to 560 nm, 590 to 600 nm and 615 to 635 nm, high quantum efficiency and millisecond relaxation lifetimes which allow signal collection after prompt tissue autofluorescence has subsided and allows data collection outside the range for normal tissue fluorescence. […] Furthermore, chelates derived from this family of macrocyclic ligands are among the most thermodynamically and kinetically inert lanthanide complexes, a paramount consideration for biological studies where metal ion toxicity is of major importance.

[7] = tested on: UMR106 cells; experiment: Subcellular uptake fluorescence in UMR106 cells (organelle and membrane smears); assay type: cell-based; details: 2 mL of 2×10^-3 M
Description: UMR106 cells were obtained from American Type Culture Collection and maintained in Basal Eagle Media with 10% fetal bovine serum. Cells were propagated so that 3×10^7 cells were contained in 25 mL. One day prior to confluence, the cells were inoculated with 2 mL of 2×10^-3 M Tb-PCTMP. At confluence, the media and Tb-TCTMP was removed with four washings of PBS. Cells were separated from the flask with 3 mL of trypsin, transferred to a centrifuge tube with 12 mL of media and spun at 1000 g for 10 minutes to pellet the cells. The pellet was resuspended in 2 mL of media and frozen by submersion of the tube into liquid nitrogen. The frozen mixture was scooped out of the tube and transferred to a mortar. To the mixture, an equal weight of sea sand and 10 mL of liquid nitrogen were added. This mixture was ground with a pestle for 30 minutes until liquefied. The resulting mixture was transferred to a centrifuge tube and spun at 10,000 rpm for 15 minutes leaving intact cells, sand and membranes in the pellet and the cytoplasmic organelles in the supernatant. The supernatant was spun at 45,000 rpm for 90 minutes in an ultracentrifuge tube to pellet the organelles. […] Both the membranes and the organelles were smeared onto microscope slides and analyzed using a Zeiss microscope, modified for UV excitation.

[8] = tested on: rat bone (femur); experiment: Micro-endoscopic fluorescence imaging of rat femur; assay type: in vivo
From the text: The optical train used is depicted in FIG. 5. For the resolution studies a 1951 USAF resolution target was used. The resolution target consists of groups of elements (lines) that are a known width, length and distance apart. The lines on the target are made from a black emulsion deposited onto a white positive background (clear glass). The images are obtained by back illuminating the resolution target using an IR filtered xenon discharge lamp. The beam from an optical fiber passes through a diffuser of in-house construction which replaces the 270 nm interference filter (4) shown in FIG. 5. The distance of the scope tip from the target (1.5 mm) was chosen so that the best in-focus image is produced. The image was collected by a 0°, 30° and 60° viewing angle with respect to the central axis of the thin rod lens endoscope. A 10× microscope objective, placed 10 mm from the endoscope, collected, magnified and played the image onto a CCD (5). […] The software produces a graph of light intensity as a function of position across the line pairs. The limiting resolution (LP/mm) is calculated using a aerial image modulation (AIM) plot and is defined as the point where the dI/dx remains constant.
Field of view measurements were made by repositioning the target so that a single line laterally spanned the field of view of the endoscope. The circular field of view is easily calculated knowing the length of the line on the resolution target the represents the diameter of the viewing zone. […]
For analysis of the bone fluorescence, two rats were injected with Tb-PCTMP or Tb-BP2P. […]
For the fluorescence measurements, the instrument in FIG. 5 was modified. […] A 550 nm bandpass filter was placed between the microscope objective (3) and the CCD (5) to select fluorescence and block background light. […]
Upon visual inspection of the high resolution video monitor (7), resolution of 181 LP/mm can be obtained. […] As calculated in a manner similar to Example II, it is possible to estimate the quantity of solute within a particular imaged zone. […]

CCCCOP(=O)(O)CN1CCN(CP(=O)(O)OCCCC)Cc2cccc(n2)CN(CP(=O)(O)OCCCC)CC1.[Tb] [Tb-PCTMB, terbium 3,6,9-tris(methylenephosphonic acid n-butyl ester)-3,6,9,15, tetraazabicyclo[9.3.1]pentadeca-1(15),11,13-triene]
relative difference between the quantity of marker solute in normal versus neoplastic tissue [1]: an order of magnitude | uptake by abnormal colon tissue [1]: preferential or enhanced uptake | interactions between the chelate and blood proteins [2]: enhances interactions between the chelate and blood proteins | tissue uptake/selectivity [3]: substantial hepatobiliary uptake; also recorded: concentrates in the small intestine | Total (Cells/ml) ([4]; average of triplicate counting, control 5.30 × 10^6): 4.70 × 10^6 Cells/ml | Dead Cells ([4]; control 5.7%): 8.5% | Live Cells ([4]; control 94.3%): 91.5% | Total Cells ([5]; average of triplicate counting, control 5.70 × 10^6): 5.30 × 10^6 | Dead Cells ([5]; control 10.5%): 9.4% | Live Cells ([5]; control 89.5%): 90.6%

O=P(O)(O)CN1CCN(CP(=O)(O)O)Cc2cccc(n2)CN(CP(=O)(O)O)CC1.[Tb] [Tb-PCTMP, terbium 3,6,9-tris(methylenephosphonic acid)-3,6,9,15-tetraazabicyclo[9.3.1]pentadeca-1(13),11,13-triene]
visible emission of the isolated complex [6]: brilliant green visible emission | tissue uptake/selectivity [2]: skeletal system uptake | fluorescence in the organelle smear of dosed cells ([7]; control no discernible fluorescence): significant fluorescence was detected | fluorescence in the membrane smears ([7]; dosed and control cells): No signal was detected | quantity per pixel, blue-purple contour ([8]; excised rat femur, FIG. 8): 1.54×10^-15 moles Tb-PCTMP/pixel | quantity per pixel, red contour ([8]; excised rat femur, FIG. 8): 3.35×10^-15 moles Tb-PCTMP/pixel | solute present in entire imaged region of the bone (surface) ([8]; rat femur, 2 hours): about 5.19 picomoles

O=P(O)(O)CN1Cc2cccc(n2)CN(CP(=O)(O)O)Cc2cccc(n2)C1.[Tb] [Tb-BP2P, terbium N,N'-bis(methylenephosphonic acid)-2,11,diaza[3.3]-(2,6)pyridinophane]
distribution of the chelate in bone [2]: fairly uniform

— patent publication US5928627A, “Fluorescent chelates as visual tissue specific imaging agents” (The Dow Chemical Company, priority 1997, dated 1999)
